This assay concerns HIV-1-LAI. Kind of assay: Inhibition of HIV replication in human peripheral blood mononuclear cells infected in vitro, p24 ELISA. Format: cell-based. To be noted: Human immunodeficiency virus 1, PBMC, read-out: inhibition of HIV replication (nucleocapsid core protein p24 in cell supernatants). How it is done: Antiretroviral action of the claimed medicinal agent was studied by inhibiting the replication of HIV in the culture of mononuclear cells of the peripheral human blood which were infected in vitro by the strain of HIV-1-LAI. Effective inhibition of HIV replication was evaluated by the content of basic nuclecapsid protein r24 in the supernatant of HIV.
Human peripheral blood mononuclear cells were isolated from the blood of healthy seronegative donors by density gradient centrifugation of Ficoll-Hypaque. Cells were activated for 3 days with […] phytogemmaglyutin P and 5 ME/ml of recombinant human interleukin-2 […]
Cell culture supernatants were collected at day 7 after infection. Efficacy of the drugs was determined by the inhibition of HIV replication, which was evaluated by content nucleocapsid core protein p24 of HIV in cell supernatants by ELISA (Retrotek Elisa kit).
Antiretroviral effect of the claimed medicinal agent studied by inhibiting HIV replication in cultured peripheral blood mononuclear cells of human infected in vitro HIV-1-LAI. Effective inhibition of HIV replication was evaluated by the content of basic nucleocapsid protein p24 in the supernatants of HIV. […]
For orientation: ELISA stands for enzyme-linked immunosorbent assay.

For 1 compound, inhibition results are on record in US20130224219A1, “DRUG AND METHOD FOR THE PROPHYLAXIS OF HIV INFECTION AND FOR THE PROPHYLAXIS AND TREATMENT OF DISEASES CAUSED BY OR ASSOCIATED WITH HIV, INCLUDING AIDS” (priority 2010, published 2013).

What is called inhibition is the drop in the measured response relative to a control, in per cent.

Structures are written as SMILES.

Take `Cc1cn([C@H]2C[C@H](N=[N+]=[N-])[C@@H](CO)O2)c(=O)[nH]c1=O` [AZT, zidovudine]: the inhibition at 1 µM was determined as 99%.
